Experimental data reported in patent US9221754B2, “Crystalline forms of zofenopril calcium” (Generics [UK] Limited, priority 2008, dated 2015).
Structures can show the parent of a compound that is named as a salt.

Tests used:
Assay type in all cases: physicochemical
[1] = Hygroscopicity of the crystalline forms
[2] = Slurry in water (10% w/v) exposed to 50-55° C. for six hours; conditions: calcium salt
[3] = Mechanical stress during particle size reduction (milling using a multimill); conditions: calcium salt
[4] = Pellet compression with an Infrared spectrophotometer press machine; conditions: pressure exerted ~10 Tons, calcium salt
[5] = Polymorphic purity under dosage form preparation conditions (micronization or wet granulation)

Structure (SMILES)	hygroscopicity [1]	polymorphic stability of the water slurry, by XRPD, DSC and TGA [2]	polymorphic stability to mechanical stress (milling), by XRPD, DSC and TGA [3]	polymorphic stability to compression, by XRPD, DSC and TGA [4]	change in polymorphic purity during dosage form preparation [5]
C[C@H](CSC(=O)c1ccccc1)C(=O)N1C[C@@H](Sc2ccccc2)C[C@H]1C(=O)O [Polymorph E, (4S)-1-[(2S)-3-(benzoylthio)-2-methylpropionyl]-4-(phenylthio)-L-proline calcium salt]	non-hygroscopic	no change	retained its polymorphic composition	identical to that before compression	
C[C@H](CSC(=O)c1ccccc1)C(=O)N1C[C@@H](Sc2ccccc2)C[C@H]1C(=O)O [form F, (4S)-1-[(2S)-3-(benzoylthio)-2-methylpropionyl]-4-(phenylthio)-L-proline calcium salt]	non-hygroscopic				
C[C@H](CSC(=O)c1ccccc1)C(=O)N1C[C@@H](Sc2ccccc2)C[C@H]1C(=O)O [form C, (4S)-1-[(2S)-3-(benzoylthio)-2-methylpropionyl]-4-(phenylthio)-L-proline calcium salt]					very slight changes in polymorphic purity
